Like-named read-outs stand apart in the source and are kept apart here.
Legend:
[1] = biological target: T1, Type I 5α-Reductase from Human Scalp (Homo sapiens, UniProt P18405); assay: Human Type I 5α-reductase assay (conversion of [3H]-testosterone to 5α-reduced metabolites); type: biochemical
T1 construct: Scalp punch biopsies from graft recipient sites were obtained from human hair transplant procedures; from tissue; host or cells: human scalp punch biopsies (hair transplant graft recipient sites), homogenate, 100,000×g pellet
T1 sequence (P18405 1-259): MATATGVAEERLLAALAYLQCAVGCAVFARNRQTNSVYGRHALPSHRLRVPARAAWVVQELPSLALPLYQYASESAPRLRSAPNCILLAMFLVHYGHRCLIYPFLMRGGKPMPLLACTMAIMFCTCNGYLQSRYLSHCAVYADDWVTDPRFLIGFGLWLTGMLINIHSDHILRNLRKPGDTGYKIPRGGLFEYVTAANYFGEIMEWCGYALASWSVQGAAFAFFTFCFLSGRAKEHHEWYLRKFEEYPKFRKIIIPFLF

[2] = biological target: T2, Type II 5α-Reductase from Human Prostate (Homo sapiens, UniProt P31213); assay: Human Type II 5α-reductase assay (conversion of [3H]-testosterone to 5α-reduced metabolites); type: biochemical; conditions: for percent inhibition of Type II AR: 0.3 μM
T2 construct: The same procedure as above was used for preparations using tissue from prostate surgery; from tissue; host or cells: human prostate tissue from surgery, homogenate, 100,000×g pellet
T2 sequence (P31213 1-254): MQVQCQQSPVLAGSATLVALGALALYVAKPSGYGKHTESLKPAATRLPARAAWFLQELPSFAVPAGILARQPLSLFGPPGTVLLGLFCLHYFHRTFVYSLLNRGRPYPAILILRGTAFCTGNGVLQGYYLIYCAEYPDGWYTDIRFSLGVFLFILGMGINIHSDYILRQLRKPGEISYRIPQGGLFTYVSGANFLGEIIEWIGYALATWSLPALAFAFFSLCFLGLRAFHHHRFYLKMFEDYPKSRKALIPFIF

[3] = pH 7.5, 0.3 μM, 50 nM [3H]-testosterone, pH 7.5, 25°, 180 min, compared to control reaction mixtures, read-out: percent inhibition of Type I AR
[4] = pH 5.5, 0.3 μM, sodium acetate pH 5.5, 25°, 30 min, compared to control reaction mixtures, read-out: percent inhibition of Type II AR
[5] = sodium acetate pH 5.5, 25°, 30 min, compared to control reaction mixtures

Structure (SMILES)	inhibition at 0.3 µM [1, 3] [%]	inhibition at 0.3 µM [2, 4] [%]	percent inhibition of Type II AR [2, 5] [%]	percent inhibition of Type I AR ([1]; 0.3 μM, 50 nM [3H]-testosterone, pH 7.5, 25°, 180 min, compared to control reaction mixtures) [%]	inhibition at 0.3 µM ([1]; pH 7.5, read-out: percent inhibition of Type I AR) [%]	inhibition at 0.3 µM ([2]; pH 5.5, read-out: percent inhibition of Type II AR) [%]
CN1C(=O)CC[C@]2(C)c3ccc(Sc4nc5c(C(C)(C)C)ccc(C(C)(C)C)c5s4)cc3CC[C@@H]12 [Example 189, (+)-(4aR)-(10bR)-4-methyl-8-[4,7-di(t-butyl)-2-benzothiazolylthio]-10b-methyl-1,2,3,4,4a,5,6,10b-octahydrobenzo[f]-quinolin-3-one]	84	19	–	–	–	–
Cc1ccc(C(F)(F)F)c2sc(Sc3ccc4c(c3)CC[C@H]3N(C)C(=O)CC[C@]43C)nc12 [Example 190, (+)-(4aR)-(10bR)-4-methyl-8-(4-methyl-7-trifluoromethyl-2-benzothiazolylthio)-10b-methyl-1,2,3,4,4a,5,6,10b-octahydrobenzo[f]quinolin-3-one]	76	26	–	–	–	–
CN1C(=O)CC[C@]2(C)c3ccc(SCc4cc5ccccc5cn4)cc3CC[C@@H]12 [Example 191, (+)-(4aR)-(10bR)-8-(3-isoquinolinylmethylthio)-4,10b-dimethyl-1,2,3,4,4a,5,6,10b-octahydrobenzo[f]quinoline-3-one]	65	19	28	–	–	–
CN1C(=O)CC[C@]2(C)c3ccc(SCc4nc5ccccc5s4)cc3CC[C@@H]12 [Example 192, (+)-(4aR)-(10bR)-8-(2-benzothiazolylmethylthio)-4,10b-dimethyl-1,2,3,4,4a,5,6,10b-octahydrobenzo[f]quinoline-3-one]	80	33	–	–	–	–
CN1C(=O)CC[C@]2(C)c3ccc(SC(c4ccccc4)c4ccccc4)cc3CC[C@@H]12 [Example 195, (4aR)-(10bR)-8-diphenylmethylthio-4,10b-dimethyl-1,2,3,4,4a,5,6,10b-octahydrobenzo[f]-quinoline-3-one]	90	71	–	–	–	–
CN1C(=O)CC[C@]2(C)c3ccc(-c4cncc5ccccc45)cc3CC[C@@H]12 [Example 200, (+)-(4aR)-(10bR)-4-methyl-8-(4-isoquinolinyl)-10b-methyl-1,2,3,4,4a,5,6,10b-octahydrobenzo [f]quinolin-3-one]	59	72	64	–	–	–
CN1C(=O)CC[C@]2(C)c3ccc(-c4cnc5ccccc5c4)cc3CC[C@@H]12 [Example 201, (+)-(4aR)-(10bR)-4-methyl-8-(3-quinolinyl)-10b-methyl-1,2,3,4,4a,5,6,10b-octahydrobenzo[f]quinolin-3-one]	69	60	57	–	–	–
CN1C(=O)CC[C@]2(C)c3ccc(-c4ccc([N+](=O)[O-])cn4)cc3CC[C@@H]12 [Example 202, (+)-(4aR)-(10bR)-4-methyl-8-(5-nitro-2-pyridinyl)-10b-methyl-1,2,3,4,4a,5,6,10b-octahydrobenzo[f]quinolin-3-one]	41	48	–	–	–	–
CN1C(=O)CC[C@]2(C)c3ccc(-c4cc(C(F)(F)F)nc5c(C(F)(F)F)cccc45)cc3CC[C@@H]12 [Example 203, (+)-(4aR)-(10bR)-4-methyl-8-[2,8-bis(trifluoromethyl)-4-quinolinyl]-10b-methyl-1,2,3,4,4a,5,6,10b-octahydrobenzo[f]-quinolin-3-one]	8	34	–	–	–	–
CN1C(=O)CC[C@]2(C)c3ccc(-c4ccc(S(C)(=O)=O)cc4)cc3CC[C@@H]12 [Example 204, (+)-(4aR)-(10bR)-4-methyl-8-(4-methylsulfonylphenyl)-10b-methyl-1,2,3,4,4a,5,6,10b-octahydrobenzo[f]quinolin-3-one]	34	39	–	–	–	–
CN1C(=O)CC[C@]2(C)c3ccc(-c4c(F)c(F)c(F)c(F)c4F)cc3CC[C@@H]12 [Example 205, (+)-(4aR)-(10bR)-4-methyl-8-(2,3,4,5,6-pentafluorophenyl)-10b-methyl-1,2,3,4,4a,5,6,10b-octahydrobenzo[f]quinolin-3-one]	100	37	–	–	–	–
CN1C(=O)CC[C@]2(C)c3ccc(-c4cc(F)c(F)c(F)c4)cc3CC[C@@H]12 [Example 206, (+)-(4aR)-(10bR)-4-methyl-8-(3,4,5-trifluorophenyl)-10b-methyl-1,2,3,4,4a,5,6,10b-octahydrobenzo[f]quinolin-3-one]	97	32	–	100	–	–
CN1C(=O)CC[C@]2(C)c3ccc(-c4ccc5c(c4)CCC5=O)cc3CC[C@@H]12 [Example 207, (+)-(4aR)-(10bR)-4-methyl-8-(1-oxo-5-indanyl)-10b-methyl-1,2,3,4,4a,5,6,10b-octahydrobenzo[f]quinolin-3-one]	45	16	–	–	–	–
CN1C(=O)CC[C@]2(C)c3ccc(-c4cccc(C(F)(F)F)c4F)cc3CC[C@@H]12 [Example 208, (+)-(4aR)-(10bR)-4-methyl-8-(2-fluoro-3-trifluoromethyl-phenyl)-10b-methyl-1,2,3,4,4a,5,6,10b-octahydrobenzo[f]-quinolin-3-one]	77	10	–	–	–	–
CN1C(=O)CC[C@]2(C)c3ccc(-c4cccc(C(=O)NC5CCN(Cc6ccccc6)CC5)c4)cc3CC[C@@H]12 [Example 209, (+)-(4aR)-(10bR)-4-methyl-8-(3-[1-benzyl-4-piperidinylcarboxamido]phenyl)-10b-methyl-1,2,3,4,4a,5,6,10b-octahydrobenzo[f]quinolin-3-one]	24	11	–	–	–	–
CN1C(=O)CC[C@]2(C)c3ccc(-c4ccc(C(F)(F)F)cc4F)cc3CC[C@@H]12 [Example 210, (+)-(4aR)-(10bR)-4-methyl-8-(2-fluoro-4-trifluoromethylphenyl)-10b-methyl-1,2,3,4,4a,5,6,10b-octahydrobenzo[f]-quinolin-3-one]	–	–	–	–	81	38
CN1C(=O)CC[C@]2(C)c3ccc(-c4cc(C(F)(F)F)ccc4F)cc3CC[C@@H]12 [Example 211, (+)-(4aR)-(10bR)-4-methyl-8-(2-fluoro-5-trifluoromethylphenyl)-10b-methyl-1,2,3,4,4a,5,6,10b-octahydrobenzo[f]-quinolin-3-one quinolin-3-one]	70	29	–	–	–	–
CSc1cccc(-c2ccc3c(c2)CC[C@H]2N(C)C(=O)CC[C@]32C)c1 [Example 212, (+)-(4aR)-(10bR)-4-methyl-8-(3-methylthiophenyl)-10b-methyl-1,2,3,4,4a,5,6,10b-octahydrobenzo[f]quinolin-3-one]	73	31	–	–	–	–
CN1C(=O)CC[C@]2(C)c3ccc(-c4ccc(C(N)=O)cc4)cc3CC[C@@H]12 [Example 213, (+)-(4aR)-(10bR)-4-methyl-8-(4-carboxamidophenyl)-10b-methyl-1,2,3,4,4a,5,6,10b-octahydrobenzo[f]quinolin-3-one]	64	28	–	–	–	–
CCN(CC)C(=O)c1cc2cc(-c3ccc4c(c3)CC[C@H]3N(C)C(=O)CC[C@]43C)ccc2oc1=O [Example 214, (+)-(4aR)-(10bR)-4-methyl-8-[2-oxo-3-(N,N-diethylcarboxamido)-1-2H-benzopyran-6-yl)-10b-methyl-1,2,3,4,4a,5,6,10b-octahydrobenzo[f]quinolin-3-one]	26	29	–	–	–	–
CN1C(=O)CC[C@]2(C)c3ccc(-c4ccc(NC(=O)C(C)(C)C)nc4)cc3CC[C@@H]12 [Example 215, (+)-(4aR)-(10bR)-4-methyl-8-[2-(t-butylcarbonylamino)-5-pyridinyl]-10b-methyl-1,2,3,4,4a,5,6,10b-octahydrobenzo[f]-quinolin-3-one]	84	42	–	–	–	–
CN1C(=O)CC[C@]2(C)c3ccc(-c4cc(F)cc(C(F)(F)F)c4)cc3CC[C@@H]12 [Example 216, (+)-(4aR)-(10bR)-4-methyl-8-(3-fluoro-5-trifluoromethylphenyl)-10b-methyl-1,2,3,4,4a,5,6,10b-octahydrobenzo[f]-quinolin-3-one]	78	24	–	–	–	–
CN1C(=O)CC[C@]2(C)c3ccc(-c4ccc([N+](=O)[O-])s4)cc3CC[C@@H]12 [Example 217, (+)-(4aR)-(10bR)-4-methyl-8-(5-nitro-2-thienyl)-10b-methyl-1,2,3,4,4a,5,6,10b-octahydrobenzo[f]quinolin-3-one]	93	33	–	–	–	–
CN1C(=O)CC[C@]2(C)c3ccc(-c4ccc(Cl)s4)cc3CC[C@@H]12 [Example 218, (+)-(4aR)-(10bR)-4-methyl-8-(5-chloro-2-thienyl)-10b-methyl-1,2,3,4,4a,5,6,10b-octahydrobenzo[f]quinolin-3-one]	84	35	–	–	–	–
